Values joined by “and” are separate entries in the source; they are usually repeats but may differ in a detail not shown here. Identical values can stand only once.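 Assay format: 96-well plates, 48-hour exposure. GI50: concentration for 50% inhibition of growth. The concentration for full growth arrest is given as TGI.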
Assays:
Test in all cases: inhibition of tumour cell growth, NCI panel, 48 h
DMS 273 small cell lung = system: DMS 273 small cell lung
KM20L2 colon = system: KM20L2 colon
M19-MEL melanoma = system: M19-MEL melanoma
XF 498 CNS = system: XF 498 CNS
DLD-1 colon = system: DLD-1 colon
BT-549 breast = system: BT-549 breast
HS 578T breast = system: HS 578T breast
MCF7 breast = system: MCF7 breast
MDA-MB-231 breast = system: MDA-MB-231 breast
T-47D breast = system: T-47D breast

Row | Structure (SMILES) | TGI (DMS 273 small cell lung) | TGI (KM20L2 colon) | TGI (M19-MEL melanoma) [µM] | TGI (XF 498 CNS) | TGI (DLD-1 colon) | also measured
1 | C[C@]12CC[C@H](OC(=O)Nc3ccccc3)CC1=CC[C@@H]1C2CC[C@]2(C)/C(=N/OC(=O)Nc3ccccc3)CCC12 (stereo partly drawn) | > 100 µM | > 100 µM | > 100 | 3.19 µM |  | 
2 | CC(NC1CCCC[C@@H]1O)c1ccccc1 (stereo partly drawn) | > 100 µM | > 100 µM | > 100 | > 100 µM | > 100 µM | 
3 | Cn1cnnc1Sc1c([N+](=O)[O-])nc(-c2ccc([N+](=O)[O-])cc2)n1C | 31.8 µM |  | 32.3 | 22.5 µM | 29.3 µM | 
4 | COc1ccccc1/C=C(\NC(=O)c1ccccc1)c1nc2ccccc2[nH]1 |  | > 100 µM | > 100 | > 100 µM | > 100 µM | 
5 | COc1c2c(c(O)c3c4c(c(C)cc13)C1OC3(C(OC)OC5CC(C)(O)C(OC6CC(C)(O)C(O)C(C)O6)C(C)O5)OC1C(OC)(O4)C31CO1)C(=O)C(O)CC2OC1CC(C)(O)C(OC(C)=O)C(C)O1 (stereo not drawn) | < 0.01 µM |  | < 0.01 | < 0.01 µM | 4.17 µM | 
6 | CCOC(=O)C(Cc1cc(OC)c(CC(C(=O)OCC)C(=O)OCC)cc1OC)C(=O)OCC | > 100 µM | > 100 µM | > 100 | 53.7 µM | > 100 µM | TGI (BT-549 breast): > 100 µM; TGI (HS 578T breast): > 100 µM; TGI (MCF7 breast): > 100 µM; TGI (MDA-MB-231 breast): > 100 µM; TGI (T-47D breast): > 100 µM
7 | O=C1N=C2N=C(c3ccc(Cl)cc3)N(c3ccc(Cl)cc3)N2Sc2ccccc21 | > 100 µM | > 100 µM | > 100 | 99.4 µM | > 100 µM | 
8 | CCCCn1c(-c2ccccc2)cs/c1=N\NC(=O)Cn1c(C)nc2ccccc21 | > 100 µM | > 100 µM | > 100 | > 100 µM | > 100 µM | 
9 | CNC(=O)NCCCCC(NC(C)=O)C(=O)NCc1ccccc1 (stereo not drawn) | > 100 µM | > 100 µM | > 100 | > 100 µM | > 100 µM | 
10 | COc1ccc(OCC(=O)O)c2c1CCC(C)C2=O (stereo not drawn) | > 100 µM | > 100 µM | > 100 | > 100 µM | > 100 µM | 
11 | C/C(=N/NC(N)=S)C(CN1CCOCC1)C(C1=C(O)c2ccccc2OC1)c1ccccc1 (stereo not drawn) |  | > 100 µM | > 100 | > 100 µM | > 100 µM | 
12 | O=C(NCCCN1CCN(CCCNC(=O)Nc2cc(Cl)ccc2Cl)CC1)Nc1cc(Cl)ccc1Cl | > 100 µM | > 100 µM |  | > 100 µM | > 100 µM | 
13 | Cc1c(-c2ccc(-c3ccccc3F)cc2)nc2ccc(F)cc2c1C(=O)O | 29.3 µM and 89.9 µM | 170 µM and 171 µM | 153 | 164 µM and 230 µM | 146 µM and 1040 µM | GI50 (BT-549 breast): 17.4 µM and 57.4 µM; TGI (BT-549 breast): 137 µM and 849 µM; GI50 (DLD-1 colon): 1580 nM; GI50 (DMS 273 small cell lung): 500 nM; GI50 (KM20L2 colon): 1120 nM; GI50 (MCF7 breast): 445 nM and 979 nM; TGI (MCF7 breast): 170 µM and 405 µM; GI50 (MDA-MB-231 breast): 89.8 µM and 30.5 µM; TGI (MDA-MB-231 breast): 146 µM and 250 µM; GI50 (T-47D breast): 10.2 µM and 79.5 µM; TGI (T-47D breast): 259 µM and 792 µM; GI50 (XF 498 CNS): 106 µM
14 | O=C(O)C1CC2C=CCC(C2)C1 (stereo not drawn) | > 100 µM | > 100 µM | > 100 | > 100 µM | > 100 µM | 
15 | c1ccc(N2CCN(CCN3CCc4c([nH]c5ccccc45)C3c3cccnc3)CC2)cc1 (stereo not drawn) | > 100 µM | > 100 µM | > 100 | > 100 µM | > 100 µM | 
16 | O=c1cc(-c2ccccc2)oc2cc(OCCCCCCCCCCOc3ccc4c(=O)cc(-c5ccccc5)oc4c3)ccc12 | > 100 µM | > 100 µM | > 100 | > 100 µM |  | 
17 | CCOC(=O)NN1C(=O)C(=P(c2ccccc2)(c2ccccc2)c2ccccc2)C(C(=O)OC)=C1C | > 100 µM | > 100 µM | > 100 | > 100 µM | > 100 µM | 
18 | O=S1(=O)CCC2=CC(C(F)(F)F)=CC(C(F)(F)F)=CN21 |  | 5.25 µM | 3.08 | 3.42 µM | 1.77 µM | TGI (BT-549 breast): 6.1 µM; TGI (HS 578T breast): > 43.4 µM; TGI (T-47D breast): 0.397 µM
19 | CCOC(=N)CC(=O)Nc1ccccc1CC | > 100 µM | > 100 µM | > 100 | > 100 µM | > 100 µM | 
20 | Cc1nc(Nc2ccc(Cl)cc2)sc1C(=O)Nc1cccc2c(=O)[nH][nH]c(=O)c12 | > 100 µM | 41.2 µM | 84.4 |  | 86.4 µM | 
21 | Cc1cccc(C=NC23CC4CC(CC(C4)C2)C3)c1 | > 100 µM | > 100 µM | > 100 | > 100 µM | > 100 µM | 
22 | COC(=O)CCC(NC(=S)N/N=C(\C)c1cccs1)C(=O)OC (stereo not drawn) | > 100 µM | > 100 µM | > 100 | > 100 µM | > 100 µM | 
23 | O=C1C(=O)N(c2cc(Cl)ccc2Cl)C(=O)C(=O)C1c1nc2ccccc2s1 | > 100 µM | > 100 µM | > 100 | > 100 µM | > 100 µM | 
24 | O=C1C=C(NCCc2ccccc2)c2ccccc2C1=O | 7.55 µM | 18.7 µM | 0.927 |  | 21.9 µM | TGI (BT-549 breast): 3.77 µM; TGI (HS 578T breast): 5.09 µM; TGI (MCF7 breast): 3.34 µM; TGI (MDA-MB-231 breast): 42.8 µM; TGI (T-47D breast): 40.1 µM
25 | c1ccc(C2N=C(c3ccccn3)C(c3ccccn3)=NC2c2ccccc2)cc1 (stereo not drawn) | > 100 µM | > 100 µM | > 100 | > 100 µM | > 100 µM | 
26 | C[C@@H]1CC2(C[C@@H](C)C3[C@@H](CC4(C)CCCC5C6=CC(O)(CC[C@]34C)OC6=CC(=O)OC5(C)C)O2)OC1=O (stereo partly drawn) | > 100 µM |  |  | > 100 µM | > 100 µM | 

Reference: PubChem BioAssay (NCI)
